According to ChEMBL document CHEMBL5634100, “Novel spiro[pyrrolidine-2,3'-quinoline]-2'-one derivatives containing piperazine fragment as potential chitin synthase inhibitors and antifungal agents: Design, synthesis and biological evaluation” (Eur J Med Chem, 2023):
Converted amounts (≈) assume the structure as drawn. The source made the active and inactive calls. The rule behind the calls is not given here.

Assays:
Aspergillus fumigatus [1] = test: Antimicrobial activity against Aspergillus fumigatus GIMCC 3.19 incubated for 24 hrs by two fold serial dilution method; format: functional
Candida tropicalis [2] = test: Inhibition of Candida tropicalis ATCC 750 chitin synthase using UDP-GlcNAc as substrate at 300 ug/ml by TMB based microplate analyzer relative to control; conditions: dose 300.0 µg/ml
Aspergillus flavus [3] = test: Antimicrobial activity against Aspergillus flavus ATCC 16870 incubated for 24 hrs by two fold serial dilution method; format: functional
Candida albicans [4] = test: Antimicrobial activity against Candida albicans ATCC 76615 incubated for 24 hrs by two fold serial dilution method; format: functional
Cryptococcus neoformans [5] = test: Antimicrobial activity against Cryptococcus neoformans ATCC 32719 incubated for 24 hrs by two fold serial dilution method; format: functional
Aspergillus flavus [6] = test: Antimicrobial activity against Aspergillus flavus ATCC 16870 assessed as inhibition of cell wall synthesis in presence of sorbitol; format: functional
Candida tropicalis [7] = test: Non-competitive inhibition of Candida tropicalis ATCC 750 chitin synthase using UDP-GlcNAc as substrate assessed as decrease in Vmax with constant Km by Lineweaver-Burk plot analysis
Aspergillus fumigatus [8] = test: Antimicrobial activity against Aspergillus fumigatus GIMCC 3.19 assessed as inhibition of cell wall synthesis in presence of sorbitol; format: functional
[9] = Inhibition of Candida tropicalis ATCC 750 chitin synthase using UDP-GlcNAc as substrate by TMB based microplate analyzer
[10] = Binding affinity to Candida tropicalis ATCC 750 chitin synthase assessed as inhibition constant by Lineweaver-Burk plot analysis
Candida albicans [11] = test: Antimicrobial activity against Candida albicans ATCC 76615 assessed as inhibition of cell wall synthesis in presence of sorbitol; format: functional
Cryptococcus neoformans [12] = test: Antimicrobial activity against Fluconazole-resistant Cryptococcus neoformans ATCC 32719R incubated for 24 hrs by two fold serial dilution method; format: functional
Aspergillus fumigatus [13] = test: Antimicrobial activity against Fluconazole-resistant Aspergillus fumigatus GIMCC 3.19R incubated for 24 hrs by two fold serial dilution method; format: functional
Aspergillus flavus [14] = test: Antimicrobial activity against Fluconazole-resistant Aspergillus flavus ATCC 16870R incubated for 24 hrs by two fold serial dilution method; format: functional
Candida albicans [15] = test: Antimicrobial activity against micafungin-resistant Candida albicans ATCC 76615R incubated for 24 hrs by two fold serial dilution method; format: functional
Candida albicans [16] = test: Antimicrobial activity against fluconazole-resistant Candida albicans ATCC 76615R incubated for 24 hrs by two fold serial dilution method; format: functional
Cryptococcus neoformans [17] = test: Antimicrobial activity against Cryptococcus neoformans ATCC 32719 assessed as inhibition of cell wall synthesis in presence of sorbitol; format: functional

CCc1ccc(C(=O)N2CCN(CC(=O)N3CCCC34Cc3ccccc3NC4=O)CC2)cc1 (stereo not given) gave an MIC (Aspergillus fumigatus [1]) of 64 µg/mL (≈ 139 µM), an inhibition (Candida tropicalis [2]) of 52.8% and an MIC (Aspergillus flavus [3]) of 128 µg/mL (≈ 278 µM). For the same compound, the MIC (Candida albicans [4]) was 32 µg/mL (≈ 69.5 µM) and the MIC (Cryptococcus neoformans [5]) was 32 µg/mL (≈ 69.5 µM).

Compound COc1cccc(C(=O)N2CCN(CC(=O)N3CCCC34Cc3ccccc3NC4=O)CC2)c1 (stereo not given) has an MIC (Aspergillus fumigatus [1]) of 32 µg/mL (≈ 69.2 µM), an inhibition (Candida tropicalis [2]) of 50.7% and an MIC (Aspergillus flavus [3]) of 64 µg/mL (≈ 138 µM). For the same compound, the MIC (Candida albicans [4]) was 32 µg/mL (≈ 69.2 µM) and the MIC (Cryptococcus neoformans [5]) was 128 µg/mL (≈ 277 µM).

Compound O=C(c1cccc([N+](=O)[O-])c1)N1CCN(CC(=O)N2CCCC23Cc2ccccc2NC3=O)CC1 (stereo not given) has an MIC (Aspergillus fumigatus [1]) of 8 µg/mL (≈ 16.8 µM), an MIC (Aspergillus flavus [6]) of 128 µg/mL and an inhibition (Candida tropicalis [2]) of 81.2%. For the same compound, the inhibition (Candida tropicalis [7]) was “Active”, the MIC (Aspergillus fumigatus [8]) was 64 µg/mL and the IC50 [9] was 120 µM. For the same compound, the Ki [10] was 140 µM, the MIC (Aspergillus flavus [3]) was 4 µg/mL (≈ 8.38 µM) and the MIC (Candida albicans [11]) was 128 µg/mL. For the same compound, the MIC (Cryptococcus neoformans [12]) was 64 µg/mL (≈ 134 µM), the MIC (Candida albicans [4]) was 4 µg/mL (≈ 8.38 µM) and the MIC (Aspergillus fumigatus [13]) was 64 µg/mL (≈ 134 µM). For the same compound, the MIC (Aspergillus flavus [14]) was 32 µg/mL (≈ 67 µM), the MIC (Candida albicans [15]) was 64 µg/mL (≈ 134 µM) and the MIC (Candida albicans [16]) was 64 µg/mL (≈ 134 µM). The MIC (Cryptococcus neoformans [5]) was 32 µg/mL (≈ 67 µM) and the MIC (Cryptococcus neoformans [17]) was 256 µg/mL.

For O=C(c1cc(Cl)ccc1Cl)N1CCN(CC(=O)N2CCCC23Cc2ccccc2NC3=O)CC1 (stereo not given), the MIC (Aspergillus fumigatus [1]) was 8 µg/mL (≈ 16 µM), the MIC (Aspergillus flavus [6]) was 32 µg/mL and the inhibition (Candida tropicalis [2]) was 67.6%. For the same compound, the MIC (Aspergillus fumigatus [8]) was 64 µg/mL, the IC50 [9] was 180 µM and the MIC (Aspergillus flavus [3]) was 8 µg/mL (≈ 16 µM). The MIC (Candida albicans [11]) was 64 µg/mL, the MIC (Cryptococcus neoformans [12]) was 64 µg/mL (≈ 128 µM) and the MIC (Candida albicans [4]) was 4 µg/mL (≈ 7.98 µM). It also gave an MIC (Aspergillus fumigatus [13]) of 64 µg/mL (≈ 128 µM), an MIC (Aspergillus flavus [14]) of 64 µg/mL (≈ 128 µM) and an MIC (Candida albicans [15]) of 32 µg/mL (≈ 63.8 µM). It also gave an MIC (Candida albicans [16]) of 64 µg/mL (≈ 128 µM), an MIC (Cryptococcus neoformans [5]) of 8 µg/mL (≈ 16 µM) and an MIC (Cryptococcus neoformans [17]) of 128 µg/mL.

With O=C(c1ccc(F)cc1)N1CCN(CC(=O)N2CCCC23Cc2ccccc2NC3=O)CC1 (stereo not given) the MIC (Aspergillus fumigatus [1]) was 8 µg/mL (≈ 17.8 µM), the MIC (Aspergillus flavus [6]) was 64 µg/mL and the inhibition (Candida tropicalis [2]) was 76.7%. It also gave an MIC (Aspergillus fumigatus [8]) of 256 µg/mL, an IC50 [9] of 130 µM and an MIC (Aspergillus flavus [3]) of 8 µg/mL (≈ 17.8 µM). For the same compound, the MIC (Candida albicans [11]) was 64 µg/mL, the MIC (Cryptococcus neoformans [12]) was 64 µg/mL (≈ 142 µM) and the MIC (Candida albicans [4]) was 4 µg/mL (≈ 8.88 µM). The MIC (Aspergillus fumigatus [13]) was 64 µg/mL (≈ 142 µM), the MIC (Aspergillus flavus [14]) was 64 µg/mL (≈ 142 µM) and the MIC (Candida albicans [15]) was 64 µg/mL (≈ 142 µM). The MIC (Candida albicans [16]) was 64 µg/mL (≈ 142 µM), the MIC (Cryptococcus neoformans [5]) was 16 µg/mL (≈ 35.5 µM) and the MIC (Cryptococcus neoformans [17]) was 128 µg/mL.

With O=C(c1ccccc1I)N1CCN(CC(=O)N2CCCC23Cc2ccccc2NC3=O)CC1 (stereo not given) the MIC (Aspergillus fumigatus [1]) was 16 µg/mL (≈ 28.7 µM), the inhibition (Candida tropicalis [2]) was 54.2% and the MIC (Aspergillus flavus [3]) was 16 µg/mL (≈ 28.7 µM). It also gave an MIC (Candida albicans [4]) of 8 µg/mL (≈ 14.3 µM) and an MIC (Cryptococcus neoformans [5]) of 32 µg/mL (≈ 57.3 µM).

For OC(Cn1cncn1)(Cn1cncn1)c1ccc(F)cc1F [FLUCONAZOLE], the MIC (Aspergillus fumigatus [1]) was 4 µg/mL (≈ 13.1 µM), the MIC (Aspergillus flavus [3]) was 8 µg/mL (≈ 26.1 µM) and the MIC (Cryptococcus neoformans [12]) was greater than 256 µg/mL. The MIC (Candida albicans [4]) was 4 µg/mL (≈ 13.1 µM), the MIC (Aspergillus fumigatus [13]) was greater than 256 µg/mL and the MIC (Aspergillus flavus [14]) was greater than 256 µg/mL. It also gave an MIC (Candida albicans [16]) greater than 256 µg/mL and an MIC (Cryptococcus neoformans [5]) of 8 µg/mL (≈ 26.1 µM).

Work on NC(=O)OC[C@H](O)[C@@H](O)[C@H](N)C(=O)N[C@H](C(=O)O)[C@H]1O[C@@H](n2cc(CO)c(=O)[nH]c2=O)[C@H](O)[C@@H]1O [POLYOXIN B] yielded an MIC (Aspergillus fumigatus [1]) of 8 µg/mL (≈ 15.8 µM), an MIC (Aspergillus flavus [6]) of 64 µg/mL and an inhibition (Candida tropicalis [2]) of 86.1%. For the same compound, the MIC (Aspergillus fumigatus [8]) was 64 µg/mL, the IC50 [9] was 90 µM and the MIC (Aspergillus flavus [3]) was 8 µg/mL (≈ 15.8 µM). For the same compound, the MIC (Candida albicans [11]) was 64 µg/mL, the MIC (Candida albicans [4]) was 8 µg/mL (≈ 15.8 µM) and the MIC (Cryptococcus neoformans [5]) was 16 µg/mL (≈ 31.5 µM). The MIC (Cryptococcus neoformans [17]) was 128 µg/mL.
